What was measured:
[1] = test system: MMP-9 secretion by DV-infected iDC; assay: Gelatin zymography of gelatinase (MMP-9) secretion by DV-infected iDC; assay type: cell-based, human; details: 10 μM SB203580 pretreatment, DV exposure 16 hr, zymography (FIG. 5C)
Description: FIG. 5. Immature DC (A-C) or HUVEC (D-F) were infected or not with DV and cells were collected 30 min post infection. Cells lysate were separated on 12.5% SDS-PAGE under reducing conditions. Proteins were electrophoretically transferred onto nitrocellulose membrane. The membrane was probed with (A and E) antibodies to total and to specific phosphorylated forms of ERK1/ERK2 antibodies to total and (B, D) to specific phosphorylated forms of p38 kinase. Horseradish peroxidase-conjugated goat anti-rabbit IgG was used as secondary antibody. Immature DC (C) or HUVEC (F) were pretreated or not with 10 μM SB 203580 prior to exposure with DV for 16 hr at 37° C. Supernatants were collected, lyophilized and assayed by zymography. Data are representative of 3 independent experiments.
Immature dendritic cells 5×10^5 cells/well were exposed to DV2-16681 for 2 hr, at MOI of 1 pfu/cell, in serum free RPMI 1640. Five extensive washes were done to eliminate free virus. […] Supernatants of DV infected iDC were collected and assessed for their viral activity. […]
DV infected iDC (5×10^5 cells) were cultured and collected in several time periods. Gelatinase secretion of cell supernatants was determined by sodium dodecyl sulfate-polyacrylamide gel electrophoresis (SDS-PAGE) zymography by using a gelatin substrate, as previously described (Missé´et al., 2001). […]

[2] = test system: HUVEC monolayers; assay: HUVEC monolayer permeability assay (FITC-dextran, Transwell); assay type: cell-based, human; details: concentration not stated
Description: FIG. 6. Supernatant of DEN-V2 infected-iDC increase endothelial cell permeability in a MMP dependent fashion. Eighty percent confluent HUVEC were prepared on 24-well transwell polyethylene. (A) Either cell culture supernatants of uninfected iDC, DV-infected iDC, or recombinant TNF-α (20 ng/ml) were pre-treated or not with 20 nM SB-3CT for 24 hours before HUVEC exposure for 12 hours, HUVEC monolayer permeability was measured by using the FITC-Dextran detected with spectrofluorometer at an excitation wavelength of 485 nm and emission at 530 nm. […] Data are representative of 3 or 4 independent experiments.
FIG. 7. Supernatant of DEN-V2 infected-HUVEC increase endothelial cell permeability in a MMP-dependent fashion. IL-8 or TNF-α were used as controls. The induced permeability was inhibited as in experiment of FIG. 6 by SB-3CT.
Immature dendritic cells were cultured for 24 hr in serum-free RPMI 1640 conditioned medium. And then infected with DV, cells and supernatant were collected at different periods. […]
Permeability of HUVEC monolayers cultured on Transwell filters was assessed using FITC-labelled dextrans. […] The cells were removed and the absorbance of the FITC-dextran in the chamber was measured by spectrofluorometer (GENios-TECAN, Trappes, France) at an excitation wavelength of 485 nm and emission of 530 nm.

With C[S+]([O-])c1ccc(-c2nc(-c3ccc(F)cc3)c(-c3ccncc3)[nH]2)cc1 (centres unmarked) [SB203580, 4-(4-Fluorophenyl)-2-(4-methylsulfinylphenyl)-5-(4-pyridyl)1H-imidazole] as the compound, how does the “increase in MMP-9 secretion by DV-infected iDC” value [1] read?
The value was “totally abolished”.

What about the “permeability of HUVEC increased by dengue virus-infected iDC supernatants (summary statement)” value [2] of the same compound?
The value was “inhibited”.
